We go through four compounds from patent US3934036A, “N-benzenesulfonyl-β-alanine hydrazide useful as an immunosuppressive agent” (priority 1975, dated 1976).

“Also recorded” adds a separate entry of the source.

For data set [1] the following is noted: established immunosuppressive drugs; cited from earlier work.
The test system of data set [2] is 7S plaque-forming cells. Put plainly: Antibody production to sheep erythrocytes, 7S plaque-forming cells, comparison with other agents. The following applies: i.p.; for Spleen weight, mean ± S.E. / 7S PFC/10^6 spleen cells, mean ± S.E. / Mean body weight gain: 8 days; for Spleen weight, mean ± S.E.: control 125 ± 16; for 7S PFC/10^6 spleen cells, mean ± S.E.: control 1045 ± 202; for Mean body weight gain: control +1.0. On the procedure: The effect of KH-125 on antibody production in ddY mice was examined by Cunningham and Szenberg's plaque technique (Immunology, 14, 599, 1968) and compared with other agents.
Mice were immunized by intravenous injection of washed sheep erythrocytes (4 × 10^8 cells/mouse). Administration of KH-125 was made orally for 4 consecutive days from the day of antigen injection. 19S Plaque-forming cells (PFC) were counted 4 days after immunization.
In comparative experiment, test agents were administered intraperitoneally for 8 consecutive days from one day before immunization. 7S PFC's were counted 9 days after immunization.

The subject of data set [3] is adjuvant arthritis. The experiment in a line: Adjuvant arthritis in rats, prophylactic experiment. The settings on record: for increase in arthritis score / swelling of adjuvant-injected and non-injected feet: once daily for 17 days.
For data set [4], the system named is Wistar rats. The experiment in a line: Acute toxicity in rats (LD50). It is filed as in vivo. The settings on record: rats, male vs female. The method, then: (§1) The acute toxicity of KH-125 was studied in both sexes of ddY mice and Wistar rats. The LD50 values were calculated by the method of Litchfield and Wilcoxon (J. Pharmacol. Exptl. Ther., 96, 99, 1949).

Data set [5] can be described thus: Acute toxicity in rats (LD50). It is filed as in vivo, Wistar rats. The settings on record: rat, in vivo. On the procedure: as §1
Data set [6] has as its system nephrotoxic nephritis. Put plainly: Nephrotoxic nephritis in rats, prophylactic experiment. It is filed as in vivo, Wistar rats.
Protocol: Protein-uria was measured 18 days after nephrotoxin injection, then for electron microscopic examination the rats were killed 2 days later.
Urinary protein was measured 18 days after the nephrotoxin-injection, and then the nephrotic rats were sacrificed 2 days later for histopathological examinations.
Data set [7] is described as follows: Acute toxicity in mice (LD50). The following applies: mouse, in vivo. It counts as in vivo, ddY mice. On the procedure:
as §1

Data set [8] has as its system ddY mice. The experiment in a line: Acute toxicity in mice (LD50). It is filed as in vivo. The following applies: mice, male vs female. The method, then:
as §1

Data set [9] concerns nephrotoxic nephritis. The experiment in a line: Nephrotoxic nephritis in rats, comparative experiment. It counts as in vivo, Wistar rats. The settings on record: p.o. once daily, 15 days; protein-uria, fusion index, basement membrane thickening. The method, then:
Protein-uria was measured 18 days after nephrotoxin injection, then for electron microscopic examination the nephrotic rats were killed 3 days later. See legend of FIG. 2 for other details.
The effect of KH-125 on nephrotoxic nephritis in Wistar rats was evaluated from the following three points: (1) urinary protein measurements, (2) electron microscopic findings and (3) light microscopic findings. Nephrotic rats were prepared according to Shibata's method. (Ths Saishin-Igaku, 20, 1089, 1965).
In a comparative experiment, test agents were administered once daily: KH-125, 15 days during days 0 - 10 and 15 - 18 (p.o.); 6-mercaptopurine (6-MP), 6 days during days 0 - 5 (p.o.); cyclophosphamide, 11 days during days 0 - 10 (i.p.); and prednisolone, 11 days during days 0 - 10 (i.p.), starting from the day of nephrotoxin-injection. Urinary protein was measured 18 days after the injection of nephrotoxin, and then the animals were sacrificed 3 days later for histopathological examinations.

Data set [10] deals with mice and rats. Put plainly: Carcinogenic tests. It is filed as in vivo. The method, then:
(§2) Its toxicological properties were evaluated by subacute and chronic toxicity tests in rats, by teratological studies in rats and rabbits and also by carcinogenic tests in mice and rats.

Data set [11] relates to Wistar rats. The experiment in a line: Chronic toxicity study, 6 months oral. It is filed as in vivo. The method, then:
The chronic toxicity study of KH-125 was carried out in Wistar rats of both sexes. Rats were treated orally with KH-125 for 6 months at the dose levels of 0 (control), 10, 20 and 40 mg/kg/day.

In data set [12] the test system is antibody formation to sheep erythrocytes. The experiment in a line: Screening for ability to suppress antibody formation to sheep erythrocytes in mice. It counts as in vivo. On the procedure:
In an attempt to find an immunosuppressive agent having a lowered toxicity, about fifty acid hydrazides, mainly amino acid hydrazide derivatives, were synthesized and screened for their ability to suppress the antibody formation to sheep erythrocytes in mice. […] Further detailed pharmacological and toxicological studies were then performed about KH-125.

The test system of data set [13] is rats and rabbits. The experiment in a line: Teratological studies. It counts as in vivo. On the procedure:
as §2

In data set [14] the test system is rats, rabbits and mice. The experiment in a line: Subacute and chronic toxicity, teratological and carcinogenic studies (summary). It counts as in vivo. The following applies: subacute, chronic. On the procedure:
as §2

The subject of data set [15] is 19S plaque-forming cells. Put plainly: Antibody production to sheep erythrocytes, 19S plaque-forming cells (oral administration). The following applies: 4 days; for Mean body weight gain: control +0.8. It is filed as in vivo, ddY mice.
Description: Mice were immunized by intravenous injection of washed sheep erythrocytes (4 × 10^8 cells/mouse). […] 19S Plaque-forming cells (PFC) were counted 4 days after immunization.
Setting [16] is: oral, electron microscopic findings.
[17] abbreviates: 6 months, 10, 20 and 40 mg/kg/day.

In the case of `O=P1(N(CCCl)CCCl)NCCCO1` (stereo not drawn) [cyclophosphamide], in data set [1], the “teratogenic and carcinogenic effect” value is reported as “inevitably shared”. Further, the “Spleen weight, mean ± S.E.” value in [2] (20 mg/kg/day, p < 0.05) is given as 87 ± 7 mg. Also, the “7S PFC/10^6 spleen cells, mean ± S.E.” value in data set [2] (20 mg/kg/day, p < 0.01) was 61 ± 8 7SPFC/10^6 spleen cells. The “Mean body weight gain” value in [2] (20 mg/kg/day) is recorded as “+0.2 g”.
For the compound `C[C@]12C=CC(=O)C=C1CC[C@@H]1[C@@H]2[C@@H](O)C[C@@]2(C)[C@H]1CC[C@]2(O)C(=O)CO` [prednisolone], in [2] (4 mg/kg/day), the “Spleen weight, mean ± S.E.” value was 116 ± 19 mg and the “7S PFC/10^6 spleen cells, mean ± S.E.” value is given as 706 ± 178 7SPFC/10^6 spleen cells.
As usually defined, the LD50 is the dose at which mortality reaches 50%. Read a low LD50 as greater toxicity. In the case of `NNC(=O)CCNS(=O)(=O)c1ccccc1` [KH-125, N-benzenesulfonyl-β-alanine hydrazide], the “Spleen weight, mean ± S.E.” value in data set [2] (200 mg/kg/day, p < 0.01) is reported as 60 ± 8 mg; in data set [15] (40 mg/kg/day, control 181 ± 8), 135 ± 20 mg; in data set [15] (80 mg/kg/day, control 181 ± 8, p < 0.05), 139 ± 9 mg; in data set [15] (160 mg/kg/day, control 181 ± 8), 164 ± 14 mg. Also, the “7S PFC/10^6 spleen cells, mean ± S.E.” value in data set [2] (200 mg/kg/day, p < 0.01) was 233 ± 63 7SPFC/10^6 spleen cells. For the same compound, the “Mean body weight gain” value in data set [2] (200 mg/kg/day) is given as -4.5 g; in [15] (40 mg/kg/day) it was “+1.0 g”; in data set [15] (80 mg/kg/day), -0.8 g; in [15] (160 mg/kg/day) it was -0.5 g. Also, in [2] (8 consecutive days), the “suppressive effect on the appearance of 7S PFC, compared with other agents” value is recorded as “higher than that of prednisolone or 6-mercaptopurine; also recorded: less effective than cyclophosphamide”. Further, the “rebound of foot swelling after withdrawal” value in [3] (after withdrawal) is recorded as “not prominent”. Besides, in [3] (oral, as high as 80 mg/kg/day, 17 days), the “survival during the experiment” value is listed as “survived throughout the test period”. Moreover, the “increase in arthritis score” value in [3] (oral) is recorded as “dose-dependently suppressed”. Moreover, the “swelling of adjuvant-injected and non-injected feet” value in data set [3] (oral) is “dose-dependently suppressed”. Besides, the “suppression of adjuvant arthritis (summary)” value in data set [3] (rats) is on record as “suppress adjuvant arthritis”. Besides, the “safety margin (maximal tolerated dose in repeated administration versus effective dose) relative to 6-mercaptopurine” value in data set [3] (versus 6-mercaptopurine, adjuvant arthritis) is “about 3 times”. In addition, the “sex difference concerning the acute toxicity” value in data set [4] and in data set [8] was “No sex difference” in each case. The median lethal dose (LD50) is 2580 mg/kg in data set [5] (ip, female rats); 2150 mg/kg in data set [5] (ip, male rats); greater than 4000 mg/kg in data set [5] (po, female rats); greater than 4000 mg/kg in data set [5] (po, male rats); greater than 4000 mg/kg in data set [5] (sc, female rats); greater than 4000 mg/kg in data set [5] (sc, male rats). Besides, the LD50 in [7] (ip, female mice) stood at 1410 mg/kg; in data set [7] (ip, male mice), 1230 mg/kg; in data set [7] (po, female mice), 1570 mg/kg; in data set [7] (po, male mice) it was 1520 mg/kg; in [7] (sc, female mice) it was 1440 mg/kg; in data set [7] (sc, male mice) it was 1150 mg/kg. For the same compound, the light microscopic findings entry in data set [6] (oral) was “good improvement of nephritis”. Besides, the “fusion index of epithelial foot processes” value in data set [6] (setting [16]) is given as “improved”. In addition, the “thickening of glomerular basement membrane” value in [6] (setting [16]) is “suppressed”. Also, the protein-uria entry in data set [6] (oral, twice a day, 18 days after nephrotoxin injection) was “decreased dose-dependently”. In data set [6] (rats), the “suppression of experimental nephrotoxic nephritis (summary)” value is given as “suppress adjuvant arthritis as well as experimental nephrotoxic nephritis”. Further, the “suppression of nephrotoxic nephritis, compared with 6-mercaptopurine, cyclophosphamide and prednisolone” value in data set [9] is listed as “most effectively suppressed”. Also, the carcinogenic effect result in [10] is given as “neither teratogenic nor carcinogenic effect”. Also, in data set [11] (6 months, 40 mg/kg/day), the body weight gain result is given as “slightly inhibited”. For the same compound, the “erythrocyte count and hemoglobin” value in [11] (setting [17]) is reported as “dose-dependent decrease”. Further, the “general symptoms, food intake, urinalysis, and fractionation of serum protein” value in data set [11] (setting [17]) is “No significant effects”. In data set [11] (setting [17]), the histopathological examinations result is “No toxic effects which could be attributed to the drug were detected”. Besides, in data set [11] (setting [17]), the “serum enzyme activities, S-GOT and S-GPT” value is given as “slight but dose-dependent increases”. Further, the survival result in data set [11] (setting [17]) is “All rats survived”. In addition, in [12] (mice, antibody formation to sheep erythrocytes), the “immunosuppressive activity among about fifty acid hydrazides tested” value is “most potent immunosuppressive activity”. Also, in data set [12] (screening), the “acute toxicity among the compounds tested” value is “fairly lower acute toxicity”. In addition, the teratogenic effect result in data set [13] was “neither teratogenic nor carcinogenic effect”. Further, the “toxicity compared with well-known immunosuppressive agents” value in data set [14] is recorded as “considerably lower toxicity than well-known immunosuppressive agents”. In addition, the “19S PFC/10^6 spleen cells, mean ± S.E.” value in data set [15] (40 mg/kg/day, control 1905 ± 267) was 1383 ± 327 19S PFC/10^6 spleen cells; in data set [15] (80 mg/kg/day, control 1905 ± 267, p < 0.01) it was 368 ± 124 19S PFC/10^6 spleen cells; in data set [15] (160 mg/kg/day, control 1905 ± 267, p < 0.01), 329 ± 46 19S PFC/10^6 spleen cells. Moreover, the “appearance of 19S PFC” value in [15] (40-160 mg/kg/day) is listed as “dose-dependently suppressed”.
With `Sc1ncnc2nc[nH]c12` [6-mercaptopurine, reference compound], the “teratogenic and carcinogenic effect” value in [1] is reported as “inevitably shared”. In data set [2] (30 mg/kg/day), the “Spleen weight, mean ± S.E.” value stood at 103 ± 12 mg. Moreover, the “7S PFC/10^6 spleen cells, mean ± S.E.” value in data set [2] (30 mg/kg/day, p < 0.05) is given as 385 ± 83 7SPFC/10^6 spleen cells. Besides, the “rats died during the experiment” value in [3] (oral, 30 mg/kg/day, 17 days) is recorded as “Three of 7”. Further, in data set [3] (oral), the “increase in arthritis score” value is “dose-dependently suppressed”; the “swelling of adjuvant-injected and non-injected feet” value is “dose-dependently suppressed”.
